Measurements reported in PubChem BioAssay (NCI).
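A five-concentration, 48-hour dose response in 96-well plates underlies each endpoint, interpolated linearly between surrounding concentrations. Here, GI50 denotes the concentration required for 50% inhibition of growth. The concentration for full growth arrest is given as TGI.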

Columns and labels:
Test in all cases: growth of human tumour cells (NCI), 48 h
[1] = test system: M14 melanoma
[2] = test system: OVCAR-4 ovarian
[3] = test system: BT-549 breast
[4] = test system: IGROV1 ovarian
[5] = test system: A549 NSCLC
[6] = test system: MALME-3M melanoma
[7] = test system: UO-31 renal
[8] = test system: 786-0 renal
[9] = test system: COLO 205 colon
[10] = test system: HOP-92 NSCLC
[11] = test system: HS 578T breast
[12] = test system: NCI-H226 lung
[13] = test system: UACC-257 melanoma
[14] = test system: NCI-H460 lung
[15] = test system: PC-3 prostate
[16] = test system: SR leukemia
[17] = test system: RXF 393 renal
[18] = test system: OVCAR-5 ovarian
[19] = test system: NCI-H522 lung
[20] = test system: RPMI-8226 leukemia
[21] = test system: EKVX NSCLC
[22] = test system: SF-539 CNS
[23] = test system: UACC-62 melanoma
[24] = test system: OVCAR-8 ovarian
[25] = test system: CAKI-1 renal
[26] = test system: OVCAR-3 ovarian
[27] = test system: HT29 colon
[28] = test system: HCT-116 colon

Cc1c(-c2ccc(O)c(O)c2)oc(=O)c2c(O)cc(O)cc12
GI50 [1]: 8.07 µM | TGI [1]: 68.3 µM | GI50 [2]: 46.5 µM | TGI [2]: > 100 µM | GI50 [3]: 6.78 µM | TGI [3]: 43.2 µM | GI50 [4]: 2.3 µM | TGI [4]: 6.34 µM | GI50 [5]: 19.4 µM | TGI [5]: > 100 µM | GI50 [6]: 1.16 µM | TGI [6]: 10.3 µM | GI50 [7]: 6.9 µM | TGI [7]: > 100 µM | GI50 [8]: 14.4 µM | TGI [8]: > 100 µM | GI50 [9]: 67.4 µM | TGI [9]: > 100 µM | GI50 [10]: 17.2 µM | TGI [10]: > 100 µM | GI50 [11]: 9.69 µM | TGI [11]: 91.9 µM | GI50 [12]: 21.3 µM | TGI [12]: > 100 µM | GI50 [13]: 14.4 µM | TGI [13]: 53.3 µM | GI50 [14]: 12.1 µM | TGI [14]: > 100 µM | GI50 [15]: 29.5 µM | TGI [15]: > 100 µM | GI50 [16]: 4.52 µM | TGI [16]: > 100 µM | GI50 [17]: 49.8 µM | TGI [17]: > 100 µM | GI50 [18]: 42.9 µM | TGI [18]: > 100 µM | GI50 [19]: 5.08 µM | TGI [19]: > 100 µM | GI50 [20]: 7.69 µM | TGI [20]: 45.3 µM | GI50 [21]: 15.7 µM | TGI [21]: 63.9 µM | GI50 [22]: 13.2 µM | TGI [22]: 63.7 µM | GI50 [23]: 8.45 µM | TGI [23]: 45.1 µM | GI50 [24]: 17.9 µM | TGI [24]: 90 µM | GI50 [25]: 11.3 µM | TGI [25]: 46.5 µM | GI50 [26]: 11.1 µM | TGI [26]: 57.8 µM | GI50 [27]: 54.1 µM | TGI [27]: > 100 µM | GI50 [28]: 14 µM
